From ChEMBL document CHEMBL1147609, “Comparison of 2-phenylspiroindenes and 2-phenylspiroindenediones as estrogen receptor ligands--modeling and binding data don't agree!” (Bioorg Med Chem Lett, 2004)

Experiments:
Estrogen receptor = target: T1, Estrogen receptor (Homo sapiens, UniProt P03372); experiment: Binding affinity for estrogen receptor alpha
T1 sequence (P03372 whole entry): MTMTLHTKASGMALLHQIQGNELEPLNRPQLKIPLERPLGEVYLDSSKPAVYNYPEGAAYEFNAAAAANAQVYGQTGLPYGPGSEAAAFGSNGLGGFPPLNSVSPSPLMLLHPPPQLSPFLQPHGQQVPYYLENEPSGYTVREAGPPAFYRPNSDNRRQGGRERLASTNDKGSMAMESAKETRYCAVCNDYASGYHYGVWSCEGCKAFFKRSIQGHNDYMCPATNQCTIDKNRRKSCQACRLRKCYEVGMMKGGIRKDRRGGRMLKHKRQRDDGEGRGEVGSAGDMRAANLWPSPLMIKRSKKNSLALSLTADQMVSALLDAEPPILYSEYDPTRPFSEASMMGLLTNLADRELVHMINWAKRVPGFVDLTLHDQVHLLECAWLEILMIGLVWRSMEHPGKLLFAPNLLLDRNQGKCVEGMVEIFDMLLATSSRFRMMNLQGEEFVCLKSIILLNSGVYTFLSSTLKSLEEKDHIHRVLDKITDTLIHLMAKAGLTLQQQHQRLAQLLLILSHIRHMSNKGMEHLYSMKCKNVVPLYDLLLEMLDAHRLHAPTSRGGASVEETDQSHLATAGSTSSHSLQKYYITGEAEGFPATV

Estrogen receptor beta = Estrogen receptor beta (Homo sapiens, UniProt Q92731); experiment: Binding affinity for estrogen receptor beta
Sequence of Estrogen receptor beta (Q92731 whole entry): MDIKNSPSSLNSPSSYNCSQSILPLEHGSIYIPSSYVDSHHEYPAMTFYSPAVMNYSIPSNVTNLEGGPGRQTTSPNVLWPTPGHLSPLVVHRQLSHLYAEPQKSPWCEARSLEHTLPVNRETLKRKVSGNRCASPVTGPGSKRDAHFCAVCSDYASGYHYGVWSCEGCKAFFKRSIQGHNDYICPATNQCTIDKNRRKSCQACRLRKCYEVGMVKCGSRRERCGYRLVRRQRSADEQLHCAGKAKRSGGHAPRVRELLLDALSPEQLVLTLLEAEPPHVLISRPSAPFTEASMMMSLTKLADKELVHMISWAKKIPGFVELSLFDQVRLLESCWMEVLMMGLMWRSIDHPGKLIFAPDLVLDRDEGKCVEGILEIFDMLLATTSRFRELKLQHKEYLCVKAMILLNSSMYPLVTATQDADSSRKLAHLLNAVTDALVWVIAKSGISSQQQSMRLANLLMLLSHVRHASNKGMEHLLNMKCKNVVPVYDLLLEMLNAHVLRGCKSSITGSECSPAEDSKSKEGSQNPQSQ

In the case of `Oc1cccc(C2=Cc3cc(O)ccc3C23Cc2ccccc2C3)c1`, the IC50 (Estrogen receptor) is reported as 35 nM and the IC50 (Estrogen receptor beta) is reported as 28 nM.
For `O=C1c2ccccc2C(=O)C12C(c1ccc(O)cc1)=Cc1cc(O)ccc12`, the IC50 (Estrogen receptor) was 91 nM and the IC50 (Estrogen receptor beta) was 103 nM.
`O=C1c2ccccc2C(=O)C12C(c1cccc(O)c1)=Cc1cc(O)ccc12` was tested, and the IC50 (Estrogen receptor) was 366 nM and the IC50 (Estrogen receptor beta) was 329 nM.
With `Oc1ccc(C2=Cc3cc(O)ccc3C23Cc2ccc(OCCN4CCCCC4)cc2C3)cc1` (centres undefined) the IC50 (Estrogen receptor beta) was 1.8 nM.
With `O=C1c2ccc(OCCN3CCCCC3)cc2C(=O)C12C(c1ccc(O)cc1)=Cc1cc(O)ccc12` (centres undefined) the IC50 (Estrogen receptor) was 172 nM and the IC50 (Estrogen receptor beta) was 223 nM.
